The supplement of paper PMC10627819

Key:
S. aureus Newman [1] = experiment: fitness (endpoint OD595 vs no drug) (fraction); higher = more growth; conditions: one replicate
Method in brief: (§1)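 Cultures at OD595 0.01 were dispensed into 384-well plates in TSB, LB Lennox or CY and incubated at 37 °C. Every 30 min for 14 h, OD595 was read and corrected by the first reading. Fitness is the optical density at entry into stationary phase relative to the robust mean of no-drug control wells, capped at 1.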

B. subtilis 168 [2] = experiment: as above
Method in brief: as §1

S. aureus Newman [3] = experiment: Bliss interaction score (quartile over a dose matrix) (fitness difference); higher = more antagonism (negative = synergy)
Method in brief: (§2)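 Fitness was derived from optical density at entry into stationary phase, divided by the robust mean of the no-drug wells on the same plate. That reading was taken as OD595, and the ratio was capped at 1. Single-drug fitness was inferred from the combination data. The Bliss score, observed fitness minus the expected product of single-drug fitness, was summarised as quartiles over technical, biological and donor/recipient replicates.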

S. pneumoniae D39V = experiment: as above
Method in brief: as §2

B. subtilis 168 [4] = experiment: as above
Method in brief: as §2

S. aureus DSM 20231 = experiment: as above
Method in brief: as §2
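Throughout, for Bliss interaction score (quartile over a dose matrix): first quartile when negative (synergy) and third quartile when positive (antagonism).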

CO/N=C(\C(=O)N[C@@H]1C(=O)N2C(C(=O)O)=C(COC(N)=O)CS[C@H]12)c1ccco1 [Cefuroxime] + COc1c(N2C[C@@H]3CCCN[C@@H]3C2)c(F)cc2c(=O)c(C(=O)O)cn(C3CC3)c12 [Moxifloxacin]
fitness
Conditions | first compound 0.04875 µg/mL | first compound 0.0975 µg/mL | first compound 0.195 µg/mL | first compound 0.39 µg/mL | first compound 0.78 µg/mL
B. subtilis 168 [2], partner 0.0312 µg/mL | – | – | 0.0354 | 0.0276 | 0.0247
B. subtilis 168 [2], partner 0.0625 µg/mL | – | – | 0.0331 | 0.0172 | 0.0291
B. subtilis 168 [2], partner 0.125 µg/mL | – | – | 0.0376 | 0.0259 | 0.0192
S. aureus Newman [1], partner 0.0075 µg/mL | 0.631 | 0.593 | 0.595 | – | –
S. aureus Newman [1], partner 0.015 µg/mL | 0.439 | 0.4 | 0.445 | – | –
S. aureus Newman [1], partner 0.03 µg/mL | 0.034 | 0.0177 | 0.0236 | – | –

fitness, B. subtilis 168 [2], one replicate
Conditions | first compound 0.04875 µg/mL | first compound 0.0975 µg/mL | first compound 0.195 µg/mL | first compound 1.562 µg/mL | first compound 3.125 µg/mL | first compound 6.25 µg/mL
partner 0.0312 µg/mL | 0.0482 | 0.0451 | – | – | – | –
partner 0.0625 µg/mL | 0.0309 | 0.0348 | – | – | – | –
partner 0.125 µg/mL | 0.0185 | 0.0123 | – | – | – | –
partner 2 µg/mL | 0.0399 | 0.0244 | 0.0298 | 0.0359 | 0.0258 | 0.0141
partner 4 µg/mL | 0.0357 | 0.0206 | 0.0189 | 0.0269 | 0.0126 | 0.0118
partner 8 µg/mL | 0.0177 | 0.0063 | 0.0088 | 0.02 | 0.0184 | 0.011

Conditions | Bliss interaction score
B. subtilis 168 [4] | 0.0178
S. aureus DSM 20231 | -0.0502
S. aureus Newman [3] | -0.14
S. pneumoniae D39V | 0.0473

CO/N=C(\C(=O)N[C@@H]1C(=O)N2C(C(=O)O)=C(COC(N)=O)CS[C@H]12)c1ccco1 [Cefuroxime] + COc1ccc(C[C@H](N)C(=O)N[C@H]2[C@@H](O)[C@H](n3cnc4c(N(C)C)ncnc43)O[C@@H]2CO)cc1 [Puromycin]
fitness
Conditions | first compound 0.04875 µg/mL | first compound 0.0975 µg/mL | first compound 0.195 µg/mL
B. subtilis 168 [2], partner 0.39 µg/mL | 0.758 | 0.65 | 0.551
B. subtilis 168 [2], partner 0.78 µg/mL | 0.787 | 0.705 | 0.539
B. subtilis 168 [2], partner 1.56 µg/mL | 0.772 | 0.678 | 0.586
S. aureus Newman [1], partner 0.39 µg/mL | 0.925 | 0.95 | 0.938
S. aureus Newman [1], partner 0.78 µg/mL | 0.969 | 0.945 | 0.956
S. aureus Newman [1], partner 1.56 µg/mL | 0.951 | 0.98 | 0.983

fitness, B. subtilis 168 [2], one replicate
Conditions | first compound 1.562 µg/mL | first compound 3.125 µg/mL | first compound 6.25 µg/mL
partner 0.39 µg/mL | 0.348 | 0.268 | 0.25
partner 0.78 µg/mL | 0.369 | 0.288 | 0.286
partner 1.56 µg/mL | 0.362 | 0.312 | 0.253

Conditions | Bliss interaction score
B. subtilis 168 [4] | 0.1
S. aureus DSM 20231 | 0.127
S. aureus Newman [3] | 0.0321
S. pneumoniae D39V | 0.0887

CO/N=C(\C(=O)N[C@@H]1C(=O)N2C(C(=O)O)=C(COC(N)=O)CS[C@H]12)c1ccco1 [Cefuroxime] + COc1cccc2c1C(=O)c1c(O)c3c(c(O)c1C2=O)C[C@@](O)(C(=O)CO)C[C@@H]3O[C@H]1C[C@H](N)[C@H](O)[C@H](C)O1 [Doxorubicin]
fitness
Conditions | first compound 0.04875 µg/mL | first compound 0.0975 µg/mL | first compound 0.195 µg/mL
B. subtilis 168 [2], partner 0.625 µg/mL | 0.667 | 0.575 | 0.343
B. subtilis 168 [2], partner 1.25 µg/mL | 0.63 | 0.528 | 0.288
B. subtilis 168 [2], partner 2.5 µg/mL | 0.371 | 0.293 | 0.025
S. aureus Newman [1], partner 0.625 µg/mL | 0.891 | 0.873 | 0.784
S. aureus Newman [1], partner 1.25 µg/mL | 0.854 | 0.753 | 0.682
S. aureus Newman [1], partner 2.5 µg/mL | 0.735 | 0.617 | 0.659

fitness, B. subtilis 168 [2], one replicate
Conditions | first compound 0.39 µg/mL | first compound 0.78 µg/mL | first compound 1.562 µg/mL | first compound 3.125 µg/mL | first compound 6.25 µg/mL
partner 0.625 µg/mL | 0.264 | 0.272 | 0.365 | 0.208 | 0.142
partner 1.25 µg/mL | 0.25 | 0.17 | 0.0862 | 0.0711 | 0.0435
partner 2.5 µg/mL | 0.018 | 0.0243 | 0.0327 | 0.0359 | 0.0405

Conditions | Bliss interaction score
B. subtilis 168 [4] | -0.158
S. aureus DSM 20231 | 0.0859
S. aureus Newman [3] | -0.0601
S. pneumoniae D39V | -0.0401

CO/N=C(\C(=O)N[C@@H]1C(=O)N2C(C(=O)O)=C(COC(N)=O)CS[C@H]12)c1ccco1 [Cefuroxime] + C[C@@H]1O[C@@H]1P(=O)(O)O [Fosfomycin]
fitness
Conditions | first compound 0.04875 µg/mL | first compound 0.0975 µg/mL | first compound 0.195 µg/mL
B. subtilis 168 [2], partner 1.562 µg/mL | 0.464 | 0.419 | 0.39
B. subtilis 168 [2], partner 3.124 µg/mL | 0.363 | 0.337 | 0.28
B. subtilis 168 [2], partner 6.248 µg/mL | 0.293 | 0.245 | 0.194
S. aureus Newman [1], partner 0.781 µg/mL | 0.803 | 0.7 | 0.632
S. aureus Newman [1], partner 1.562 µg/mL | 0.56 | 0.508 | 0.438
S. aureus Newman [1], partner 3.124 µg/mL | 0.12 | 0.0863 | 0.0573

fitness, B. subtilis 168 [2], one replicate
Conditions | first compound 0.39 µg/mL | first compound 0.78 µg/mL | first compound 1.562 µg/mL | first compound 3.125 µg/mL | first compound 6.25 µg/mL
partner 1.562 µg/mL | 0.344 | 0.301 | 0.179 | 0.136 | 0.113
partner 3.124 µg/mL | 0.331 | 0.235 | 0.17 | 0.122 | 0.133
partner 6.248 µg/mL | 0.189 | 0.131 | 0.0925 | 0.0543 | 0.0496

Conditions | Bliss interaction score
B. subtilis 168 [4] | -0.0716
S. aureus DSM 20231 | 0.0278
S. aureus Newman [3] | 0.0983
S. pneumoniae D39V | 0.0411
